In US20090111697A1, “PROPIONIC ACID AS AN HERBICIDE” (Marrone Organic Innovations, priority 2007, published 2009):

Experiments:
[1] = system: Poa annua (annual bluegrass); assay: Post-emergence spray test on annual bluegrass, 0.5-20%; assay type: in vivo; conditions: 2 mL spray, four days after treatment
Experimental: Pots with 6-cm diameter were filled with potting mix, and about thirty (30) seeds of Poa annua (annual bluegrass, representing a grass weed) were planted on the top. The seeds were germinated and the plants grown at optimum water content under growth lights with a 12-h light/dark period at room temperature until they were about 3 inches tall. To test the post-emergence effect of propionic acid, the plants were sprayed with 2 mL of water solutions containing increasing concentrations of propionic acid. The following concentrations (v/v %) were used: 0% (control), 0.5% 2.5%, 5%, 10%, and 20%. the plants were observed four days after the treatment.

[2] = system: Lactuca sativa (lettuce) seeds; assay: Pre-emergence pot test, propionic acid in corn gluten meal granules, lettuce; assay type: in vivo; conditions: one week
Experimental: (§1) To further test the inhibitory effect of propionic acid on germinating seeds, pots with 6-cm diameter were filled with 60 mL of silty clay loam soil passed through a 2-mm sieve, and five (5) seeds of either Lactuca sativa (lettuce, representing a broadleaf plant) or Poa annua (annual bluegrass, representing a grass weed) were planted on the top. A solid form of the composition containing corn gluten meal granules (1-2 mm diameter) soaked in 0%, 10%, 15% or 20% propionic acid solution and dried were placed on the top of the soil at rates 0.1, 0.25, and 0.5 g/pot. The pots were kept at optimum water content under growth lights with a 12-h light/dark period at room temperature, and the number of germinated seeds was counted after one week. The results were reported as a percent of weed seeds germinated relative to the control treatment with no corn gluten meal added.

[3] = system: Seedlings of Lactuca sativa (lettuce); assay: High-throughput 96-well post-emergence assay on lettuce seedlings; assay type: in vivo
Experimental: A high-throughput 96-well assay was used to test the efficacy of propionic acid as a post-emergence, non-selective herbicide. Seedlings of Lactuca sativa (lettuce) were grown in water agar in 96-well plates under continuous light. Propionic acid was added on the seedlings at a 2×-dilution series from 20% to 0%, and the minimum concentration needed for killing the seedling was recorded the next day. According to the results, propionic acid at a concentration of 0.156% was able to kill the lettuce seedling, whereas propionic acid at a concentration of 0.08% was not harmful for the plant.

[4] = system: Lactuca sativa (lettuce) seed; assay: Germination of lettuce seeds in 96-well plate, dilution series; assay type: in vivo; conditions: 11 days; for germination: 75 ul per well
Experimental: The phytotoxic effects of propionic and formic acids were tested on germinating dicot seeds. A single seed of Lactuca sativa (lettuce) was placed in each well of a 96-well plate followed by a 75-ul aliquot of each solution in a stepwise (1:2) dilution series with DI water from 5% to 0%. DI water was used as a control. The plate was sealed with a plastic cover, and placed under greenhouse lights (12 hr light/dark cycle) for 11 days after which the germination at each concentration was recorded. See the results below.

[5] = system: Poa annua (annual bluegrass) seeds; assay: Pre-emergence pot test, propionic acid in corn gluten meal granules, annual bluegrass; assay type: in vivo; conditions: one week
Experimental: as §1

[6] = system: Poa annua; assay: Post-emergence minimum concentration study in peat pots, 2-10%; assay type: in vivo; conditions: Poa annua in small peat pots, sprayed
Excerpt: To further test the minimum concentration of propionic acid required to control Poa annua (as an example of a grass weed) another study was set up in small peat pots using concentrations 0% (control), 2%, 4%, 6%, 8% and 10% of propionic acid. According to the results, a concentration of 8-10% is needed for good control.

[7] = Solubility of hinokitiol in solvents; assay type: physicochemical; conditions: ambient conditions
Excerpt: The solubility of hinokitiol in proprionic acid was 60% w/w or 3 parts hinokitiol to 2 parts propionic acid by weight, under ambient conditions. Under the correct conditions the solubility of hinokitiol in propionic acid would exceed 3 parts hinokitiol to 2 parts propionic acid, by weight. Under ambient conditions, the maximum solubility of hinokitiol in ethanol is 50% w/w or 1 part hinokitiol to 1 part ethanol by weight.

[8] = granules soaked in 10% propionic acid, 0.1 g/pot
[9] = granules soaked in 10% propionic acid, 0.25 g/pot
[10] = granules soaked in 10% propionic acid, 0.5 g/pot
[11] = granules soaked in 15% propionic acid, 0.1 g/pot
[12] = granules soaked in 15% propionic acid, 0.25 g/pot
[13] = granules soaked in 15% propionic acid, 0.5 g/pot
[14] = granules soaked in 20% propionic acid, 0.1 g/pot
[15] = granules soaked in 20% propionic acid, 0.25 g/pot
[16] = granules soaked in 20% propionic acid, 0.5 g/pot

Structure (SMILES): CCC(=O)O [Propionic acid]
- herbicidal effect, visual observations ([1]; 0.5% (v/v) in water): no herbicidal effect
- herbicidal effect, visual observations ([1]; 10% (v/v) in water): symptoms of wilting, scorching and eventually, death
- herbicidal effect, visual observations ([1]; 20% (v/v) in water): symptoms of wilting, scorching and eventually, death
- germination rate (%) relative to untreated control [2, 8]: 50%
- germination rate (%) relative to untreated control [2, 9]: 75%
- germination rate (%) relative to untreated control [2, 10]: 42%
- germination rate (%) relative to untreated control [2, 11]: 83%
- germination rate (%) relative to untreated control [2, 12]: 25%
- germination rate (%) relative to untreated control [2, 13]: 42%
- germination rate (%) relative to untreated control [2, 14]: 42%
- germination rate (%) relative to untreated control [2, 15]: 67%
- germination rate (%) relative to untreated control [2, 16]: 33%
- effect on the seedling ([3]; concentration of 0.08%, next day): not harmful
- minimum concentration needed for killing the seedling ([3]; lettuce seedlings, recorded the next day): 0.156%
- germination ([4]; 0.005% solution): +
- germination ([4]; 0.01% solution): +
- germination ([4]; 0.02% solution): + and −
- germination ([4]; 0.05% solution): − and +
- germination ([4]; 0.09% solution): −
- germination ([4]; 0.19% solution): −
- germination ([4]; 0.36% solution): −
- germination ([4]; 0.75% solution): −
- germination ([4]; 1.25% solution): −
- germination ([4]; 2.50% solution): −
- germination ([4]; 5.00% solution): −
- threshold value for complete inhibition of seed germination ([4]; lettuce seed): 0.09%
- germination rate (%) relative to untreated control [5, 8]: 37%
- germination rate (%) relative to untreated control [5, 9]: 44%
- germination rate (%) relative to untreated control [5, 10]: 22%
- germination rate (%) relative to untreated control [5, 11]: 44%
- germination rate (%) relative to untreated control [5, 12]: 52%
- germination rate (%) relative to untreated control [5, 13]: 30%
- germination rate (%) relative to untreated control [5, 14]: 44%
- germination rate (%) relative to untreated control [5, 15]: 37%
- germination rate (%) relative to untreated control [5, 16]: 96%
- concentration needed for good control [6]: 8-10%

Structure (SMILES): O=CO [Formic Acid, reference compound]
- germination ([4]; 0.005% solution): +
- germination ([4]; 0.01% solution): + and −
- germination ([4]; 0.02% solution): + and −
- germination ([4]; 0.05% solution): − and +
- germination ([4]; 0.09% solution): −
- germination ([4]; 0.19% solution): −
- germination ([4]; 0.36% solution): −
- germination ([4]; 0.75% solution): −
- germination ([4]; 1.25% solution): −
- germination ([4]; 2.50% solution): −
- germination ([4]; 5.00% solution): −

Structure (SMILES): CC(C)c1cccc(=O)c(O)c1 [hinokitiol]
- maximum solubility in ethanol [7]: 50 % w/w
- solubility in propionic acid [7]: 60 % w/w
